Experimental findings from ChEMBL document CHEMBL1201862, “PubChem BioAssay data set” (2004) are described below.

Values joined by “and” are separate entries in the source; they are usually repeats but may differ in a detail not shown here. Identical values can stand only once.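 1) Cells in 96-well plates. 2) Compound, 48 h, 5 concentrations. 3) Linear interpolation between surrounding doses. 4) Unreached endpoint = highest concentration. Abbreviation: GI50, concentration required for 50% inhibition of growth.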 Active and inactive are the calls of the source. No stated cut-off is given here; in the data, active = GI50 up to about 1.1 µM and inactive = higher. Where only a bound is given, the exact number is not on record here.

Assay in all cases: NCI-60 cell line screen, 48 h
Test [1] deals with KM12.
Test [2] deals with CCRF-CEM.
For test [3], the system named is SNB-19.
The subject of test [4] is HT-29.
The subject of test [5] is HCT-15.
In test [6] the test system is NCI-H522.
For test [7], the system named is SF-539.
Test [8] relates to MDA-MB-435.
Test [9] deals with OVCAR-3.
Test [10] has as its system HCC 2998.
Test [11] deals with MOLT-4.
Test [12] relates to SF-268.
Test [13] relates to SN12C.
The subject of test [14] is SK-MEL-28.
The subject of test [15] is OVCAR-5.
Test [16] concerns T47D.
Test [17] concerns RPMI-8226.
The subject of test [18] is UO-31.
The subject of test [19] is MDA-N.
Test [20] has as its system MDA-MB-231.

As for `COc1ccc(NC(=S)NN=C(C)c2cccc(C(C)=NNC(=S)Nc3ccc(OC)cc3)n2)cc1`, the GI50 in [1] was 6.44 µM (inactive); in test [2], 3.33 µM (inactive); in test [3], > 100 µM (inactive); in test [4] it was 28.2 µM (inactive); in [5], 10.9 µM; in test [6], 33.8 µM (inactive). The GI50 is 16.4 µM (inactive) in [7]; 85.5 µM (inactive) in [8]; 13.9 µM (inactive) in test [9]; 37.7 µM (inactive) in [10]; 8.55 µM (inactive) in test [11]; > 100 µM (inactive) in test [12]. The GI50 in [13] was > 100 µM (inactive); in [14], > 100 µM (inactive); in test [15], > 100 µM (inactive); in test [16], > 100 µM (inactive); in test [17], > 100 µM (inactive); in test [18] it was 6.65 µM (inactive).
For `CC(=O)OC1OC(C2c3cccc(O)c3C(=O)c3c(O)cc(CO)cc32)C(O)C(O)C1O` (stereo not given), the GI50 is 3.04 µM (inactive) and 3.18 µM (inactive) in test [2]; 2.88 µM (inactive) and 3.33 µM (inactive) in test [3]; 3.74 µM (inactive) and 3.92 µM (inactive) in test [4]; 3.37 µM and 3.51 µM in test [5]; 4.51 µM (inactive) and 2.91 µM (inactive) in [6]; 2 µM (inactive) and 1.95 µM (inactive) in [7]. The GI50 in test [8] is 3.72 µM (inactive) and 3.19 µM (inactive); in test [10] it was 1.85 µM (inactive) and 3.03 µM (inactive); in [11], 4.13 µM (inactive) and 4.58 µM (inactive); in test [12], 4.97 µM (inactive) and 5.77 µM (inactive); in [13], 7.11 µM (inactive) and 5.35 µM (inactive); in test [14], 2.92 µM (inactive). In addition, the GI50 in [19] was 3.74 µM (inactive) and 3.13 µM (inactive); in [15], 3.94 µM (inactive) and 2.4 µM (inactive); in test [16], 1.41 µM (inactive) and 1.73 µM (inactive); in test [18], 6.46 µM (inactive) and 7.96 µM (inactive).
Regarding `NC(CC(=O)OCc1ccccc1)C(=O)OCc1ccccc1` (stereo not given), the GI50 is > 100 µM (inactive) in test [1]; > 100 µM (inactive) in test [2]; > 100 µM (inactive) in test [3]; over 100 µM in test [5]; > 100 µM (inactive) in test [6]; > 100 µM (inactive) in [7]. Further, the GI50 in [8] was > 100 µM (inactive); in test [9], > 100 µM (inactive); in [10], 33.2 µM (inactive); in test [12] it was > 100 µM (inactive); in test [13] it was > 100 µM (inactive); in [14], > 100 µM (inactive). For the same molecule, the GI50 was > 100 µM (inactive) in test [19]; > 100 µM (inactive) in test [15]; > 100 µM (inactive) in test [16]; > 100 µM (inactive) in test [17]; 69.5 µM (inactive) in [18].
In the case of `CCCCCCCCCCSC(=O)NC`, the GI50 was 35.2 µM (inactive) in test [1]; 18.9 µM (inactive) in [2]; 28.8 µM (inactive) in test [3]; 29.7 µM (inactive) in test [4]; 22.6 µM in [5]; 21.3 µM (inactive) in test [6]. Moreover, the GI50 in test [7] was 35.3 µM (inactive); in test [9], 54.2 µM (inactive); in test [10], 47.2 µM (inactive); in test [11], 18.5 µM (inactive); in test [12], 31.8 µM (inactive); in test [13], 25.7 µM (inactive). The GI50 in test [14] is 26.3 µM (inactive); in [15], 80.9 µM (inactive); in test [17], 21.9 µM (inactive); in [18] it was 23.4 µM (inactive).
As for `CCN(CC)c1c(-c2c(N(CC)CC)c(OC(C)=O)c3sccn3c2=O)c(=O)n2ccsc2c1OC(C)=O`, the GI50 is > 100 µM (inactive) in [1]; > 100 µM (inactive) in test [2]; 59.6 µM (inactive) in test [3]; > 100 µM (inactive) in test [4]; over 100 µM in test [5]; 85.5 µM (inactive) in test [7]. Besides, the GI50 was > 100 µM (inactive) in test [8]; > 100 µM (inactive) in [9]; > 100 µM (inactive) in [10]; > 100 µM (inactive) in [11]; 21.1 µM (inactive) in [20]; 39.9 µM (inactive) in test [12]. Besides, the GI50 in test [13] is > 100 µM (inactive); in test [14] it was > 100 µM (inactive); in test [19], > 100 µM (inactive); in [15], > 100 µM (inactive); in test [17], > 100 µM (inactive); in test [18] it was 93.1 µM (inactive).
`Cc1ccc2c(=O)cc(Cc3cccs3)[nH]c2n1`: the GI50 was > 100 µM (inactive) in [1]; > 100 µM (inactive) in test [2]; > 100 µM (inactive) in [3]; > 100 µM (inactive) in [4]; over 100 µM in test [5]; > 100 µM (inactive) in test [6]. Further, the GI50 in [8], in test [9], in test [11], in test [20], in test [12] and in [13] was > 100 µM (inactive) each time. The GI50 in [14], in test [15], in [16], in test [17] and in test [18] was > 100 µM (inactive) in each case.
With `CC(C)OP(=O)(OC(C)C)C(C(F)(F)F)C(F)(F)F`, the GI50 is > 100 µM (inactive) in test [1]; > 100 µM (inactive) in [2]; > 100 µM (inactive) in test [3]; > 100 µM (inactive) in test [4]; over 100 µM in test [5]; > 100 µM (inactive) in test [6]. In addition, the GI50 in test [7], in [8], in [9], in [10], in test [11] and in [12] was > 100 µM (inactive) throughout. Besides, the GI50 in [13], in [14], in test [19], in [15], in test [16] and in [17] was > 100 µM (inactive) each time. Also, in test [18], the GI50 is > 100 µM (inactive).
For the molecule `C/C(=N\N=C(N)N)c1sc(-c2nc(C)c(/C(C)=N/N=C(N)N)s2)nc1C`, the GI50 in [1] was > 36.2 µM (inactive); in [2] it was > 60.7 µM (inactive); in [3], > 100 µM (inactive); in test [4] it was > 66.8 µM (inactive); in test [5], over 46 µM; in [6] it was 36 µM (inactive). Also, the GI50 in test [7] is > 100 µM (inactive); in [9], > 85.5 µM (inactive); in [10], > 100 µM (inactive); in [11], > 57.9 µM (inactive); in test [12] it was > 100 µM (inactive); in [13], > 100 µM (inactive). The GI50 in test [14] is > 100 µM (inactive); in test [15], > 100 µM (inactive); in test [17], 39.3 µM (inactive); in test [18], > 91 µM (inactive).
Take `COc1cc(CC2c3cc(OC)c(OC)cc3CCN2C)ccc1O` (stereo not given): the GI50 in test [1] is > 100 µM (inactive); in test [2], > 100 µM (inactive); in test [3] it was > 100 µM (inactive); in [4], > 100 µM (inactive); in test [5] it was over 100 µM; in [6], > 100 µM (inactive). Besides, the GI50 in test [7], in [9], in test [10], in test [11], in test [12] and in test [13] was > 100 µM (inactive) throughout. Also, the GI50 in test [14], in test [15], in [17] and in test [18] was > 100 µM (inactive) in each case.
`Clc1ccc(-n2nnc(C3=NCCN3)c2-c2ccccc2)cc1`: the GI50 in test [1] was > 100 µM (inactive); in test [2], > 100 µM (inactive); in test [3] it was > 100 µM (inactive); in test [4], > 100 µM (inactive); in [5], over 100 µM; in test [6] it was > 100 µM (inactive). Besides, the GI50 is > 100 µM (inactive) in [7]; > 100 µM (inactive) in test [9]; > 100 µM (inactive) in test [10]; 78.5 µM (inactive) in test [11]; > 100 µM (inactive) in test [12]; > 100 µM (inactive) in test [13]. Moreover, the GI50 in test [14] is > 100 µM (inactive); in [15], > 100 µM (inactive); in test [17], > 100 µM (inactive); in test [18] it was 43.3 µM (inactive).
Consider `CC(=O)Nc1nnc(S(C)(=O)=O)s1`, for which the GI50 in test [1] was > 100 µM (inactive); in test [2], > 100 µM (inactive); in test [3] it was > 100 µM (inactive); in test [4], > 100 µM (inactive); in [5] it was over 100 µM; in test [7], > 100 µM (inactive). Also, the GI50 in [8], in test [9], in test [11], in test [12], in test [13] and in [14] was > 100 µM (inactive) throughout. The GI50 in test [19], in [15], in [17] and in test [18] was > 100 µM (inactive) each time.
